Measured values as given in patent US20080194546A1, “Pyrido-, Pyrazo- and Pyrimido-Pyrimidine Derivatives as mTOR Inhibitors” (KuDOS Pharmaceuticals Limited, priority 2005, published 2008).
Like-named read-outs stand apart in the source and are kept apart here.

Columns and labels:
[1] = target: T1, mTOR (Homo sapiens, UniProt P42345); test: Biological Assay: mTOR enzyme activity, mTOR immunoprecipitated from HeLa cell cytoplasmic extract, recombinant PHAS-1 as substrate; format: biochemical; details: Biological Assay, upper bounds; read-out: IC50 values against mTOR
T1 construct: mTOR protein was isolated from HeLa cell cytoplasmic extract by immunoprecipitation; endogenous in cells; host or cells: HeLa cell cytoplasmic extract (immunoprecipitate)

[2] = target: recombinant mTOR (FLAG-tagged, amino acid residues 1362 to 2549) (Homo sapiens, UniProt P42345); test: Alternative Enzyme Assay: AlphaScreen, inhibition of phosphorylation by recombinant mTOR; format: biochemical
[3] = system: phosphorylation of Serine 473 in Akt in MDA-MB-468 cells; test: In Vitro phospho-Ser473 Akt Assay (Acumen Explorer); format: cell-based; details: Homo sapiens
[4] = Alternative Enzyme Assay, upper bounds, read-out: IC50 values against mTOR
[5] = Alternative Enzyme Assay, read-out: IC50 values against mTOR
[6] = MDA-MB-468 cells, 2 hours, read-out: IC50, phospho-Ser473 Akt assay (cellular IC50, measured by pAkt)
[7] = MDA-MB-468, read-out: IC50 values against mTOR (phospho-Ser473 Akt assay)

IC50 [2, 4] [µM]	IC50 [2, 5] [µM]	SMILES	further results
–	–	C[C@@H]1CN(c2nc(N3CCOCC3)c3ccc(-c4ccc(Cl)cc4)nc3n2)C[C@H](C)O1 [Example 1b]	IC50 [1]: < 0.1 µM; IC50 ([2]; AlphaScreen, ATP 20 μM, read-out: IC50, tested in Alternative Enzyme Assay): 0.057 µM
< 10	< 0.3	CC(C)Oc1ccc(-c2ccc3c(N4CCOCC4)nc(N4C[C@@H](C)O[C@@H](C)C4)nc3n2)cc1 [Example 1bd]	IC50 [3, 6]: < 25 µM
< 10	< 0.3	C[C@H]1COCCN1c1nc(N2CCOCC2)c2ccc(-c3ccc(Cl)cc3)nc2n1 [Example 1be]	IC50 [3, 6]: < 2.5 µM
–	< 0.3	C[C@@H]1CN(c2nc(N3CCOCC3)c3ccc(-c4ccc(OCc5ccccc5)cc4)nc3n2)C[C@H](C)O1 [Example 1bf]	–
–	< 0.3	C[C@@H]1CN(c2nc(N3CCOCC3)c3ccc(-c4cccc(/C=N/O)c4)nc3n2)C[C@H](C)O1 [Example 1bg]	IC50 [3, 6]: < 2.5 µM
–	< 0.3	C/C(=N/O)c1cccc(-c2ccc3c(N4CCOCC4)nc(N4C[C@@H](C)O[C@@H](C)C4)nc3n2)c1 [Example 1bh]	IC50 [3, 6]: < 25 µM
–	< 0.3	C[C@@H]1CN(c2nc(N3CCOCC3)c3ccc(-c4ccoc4CO)nc3n2)C[C@H](C)O1 [Example 1bi]	IC50 [3, 6]: < 25 µM
–	< 0.3	COc1ccc(-c2ccc3c(N4CCOCC4)ncnc3n2)cc1CO [Example 1bj]	IC50 [3, 6]: < 25 µM
< 1	–	C[C@@H]1CN(c2nc(N3CCOCC3)c3ccc(-c4ccc(OCC5CCCCC5)cc4)nc3n2)C[C@H](C)O1 [Example 1bk]	–
< 10	–	C[C@@H]1CN(c2nc(N3CCOCC3)c3ccc(-c4ccc(OC5C=CCCC5)cc4)nc3n2)C[C@H](C)O1 (stereo partly drawn) [Example 1bl]	–
< 1	–	C[C@@H]1CN(c2nc(N3CCOCC3)c3ccc(-c4ccc(OCCCO)cc4)nc3n2)C[C@H](C)O1 [Example 1bm]	–
< 1	–	CCCOc1ccc(-c2ccc3c(N4CCOCC4)nc(N4C[C@@H](C)O[C@@H](C)C4)nc3n2)cc1 [Example 1bn]	–
< 1	–	C[C@@H]1CN(c2nc(N3CCOCC3)c3ccc(-c4ccc(OCC(C)(C)C)cc4)nc3n2)C[C@H](C)O1 [Example 1bo]	–
< 1	–	C[C@@H]1CN(c2nc(N3CCOCC3)c3ccc(-c4ccc(OCC(C)(C)CO)cc4)nc3n2)C[C@H](C)O1 [Example 1bp]	–
< 1	–	C/C=C/COc1ccc(-c2ccc3c(N4CCOCC4)nc(N4C[C@@H](C)O[C@@H](C)C4)nc3n2)cc1 [Example 1bq]	–
< 1	–	CCOc1ccc(-c2ccc3c(N4CCOCC4)nc(N4C[C@@H](C)O[C@@H](C)C4)nc3n2)cc1 [Example 1br]	IC50 [3, 6]: < 2.5 µM
< 1	–	C[C@@H]1CN(c2nc(N3CCOCC3)c3ccc(-c4ccc(OCC5CCCO5)cc4)nc3n2)C[C@H](C)O1 (stereo partly drawn) [Example 1bt]	–
< 10	–	CC(Oc1ccc(-c2ccc3c(N4CCOCC4)nc(N4C[C@@H](C)O[C@@H](C)C4)nc3n2)cc1)c1ccccc1 (stereo partly drawn) [Example 1bv]	–
< 10	–	C[C@@H]1CN(c2nc(N3CCOCC3)c3ccc(-c4ccc(OCc5ccc(F)c(F)c5)cc4)nc3n2)C[C@H](C)O1 [Example 1bw]	–
< 10	–	CC(C)CCCOc1ccc(-c2ccc3c(N4CCOCC4)nc(N4C[C@@H](C)O[C@@H](C)C4)nc3n2)cc1 [Example 1bx]	–
< 10	< 0.3	COc1ccc(-c2ccc3c(N4CCOCC4)nc(-c4cc(N)cc(C(=O)O)c4)nc3n2)cc1CO [Example 9a]	IC50 [3, 6]: < 25 µM
< 1	–	Clc1ccc(-c2ccc3c(N4CCOCC4)nc(-c4cccc(-c5ccccc5)c4)nc3n2)cc1 [Example 9aa]	IC50 [3, 6]: < 25 µM

IC50 [2, 4] [µM]	IC50 [2, 5] [µM]	SMILES	further results
< 10	–	N#Cc1cccc(-c2nc(N3CCOCC3)c3ccc(-c4ccc(Cl)cc4)nc3n2)c1 [Example 9ab]	–
< 10	–	NC(=O)c1cccc(-c2nc(N3CCOCC3)c3ccc(-c4ccc(Cl)cc4)nc3n2)c1 [Example 9ac]	–
< 1	–	COC(=O)c1cccc(-c2nc(N3CCOCC3)c3ccc(-c4ccc(Cl)cc4)nc3n2)c1 [Example 9ad]	–
< 10	< 0.3	COc1ccc(-c2ccc3c(N4CCOCC4)nc(-c4cccc(CO)c4)nc3n2)cc1CO [Example 9ae]	–
< 10	< 0.3	COc1ccc(-c2ccc3c(N4CCOCC4)nc(-c4cc(C(=O)O)cc([N+](=O)[O-])c4)nc3n2)cc1CO [Example 9b]	–
< 10	< 0.3	COc1ccc(-c2ccc3c(N4CCOCC4)nc(-c4cccc([N+](=O)[O-])c4)nc3n2)cc1CO [Example 9c]	–
< 10	< 0.3	COc1ccc(-c2ccc3c(N4CCOCC4)nc(-c4cccc(C)c4)nc3n2)cc1CO [Example 9d]	IC50 [3, 6]: < 25 µM
< 10	< 0.3	COc1cccc(-c2nc(N3CCOCC3)c3ccc(-c4ccc(OC)c(CO)c4)nc3n2)c1 [Example 9e]	IC50 [3, 6]: < 25 µM
< 10	< 0.3	COc1ccc(-c2ccc3c(N4CCOCC4)nc(-c4ccco4)nc3n2)cc1CO [Example 9f]	IC50 [3, 6]: < 25 µM
< 10	< 0.3	COc1ccc(-c2ccc3c(N4CCOCC4)nc(-c4cccc(C=O)c4)nc3n2)cc1CO [Example 9g]	IC50 [3, 6]: < 2.5 µM
–	< 0.3	COCc1cccc(-c2nc(N3CCOCC3)c3ccc(-c4ccc(OC)c(CO)c4)nc3n2)c1 [Example 9h]	IC50 [3, 6]: < 2.5 µM
< 10	< 0.3	COc1ccc(-c2ccc3c(N4CCOCC4)nc(-c4cccc(O)c4)nc3n2)cc1CO [Example 9i]	IC50 [3, 6]: < 2.5 µM
< 10	< 0.3	COc1ccc(-c2ccc3c(N4CCOCC4)nc(-c4cccc(C#N)c4)nc3n2)cc1CO [Example 9j]	IC50 [3, 6]: < 25 µM
–	< 0.3	COc1ccc(-c2ccc3c(N4CCOCC4)nc(-c4cccc(C(N)=O)c4)nc3n2)cc1CO [Example 9k]	IC50 [3, 6]: < 2.5 µM
–	< 0.3	COc1ccc(-c2ccc3c(N4CCOCC4)nc(-c4cccc(N)c4)nc3n2)cc1CO [Example 9l]	IC50 [3, 6]: < 2.5 µM
< 10	–	COc1ccc(-c2ccc3c(N4CCOCC4)nc(-c4cccc(-c5ccccc5)c4)nc3n2)cc1CO [Example 9o]	–
< 1	–	FC(F)(F)c1cccc(-c2nc(N3CCOCC3)c3ccc(-c4ccc(Cl)cc4)nc3n2)c1 [Example 9p]	–
< 10	–	COc1ccc(-c2ccc3c(N4CCOCC4)nc(-c4ccc(OC)c(CO)c4)nc3n2)cc1CO [Example 9q]	–
< 10	–	C[C@@H]1CN(c2ccc3c(N4CCOCC4)nc(-c4ccc(Cl)cc4)nc3n2)C[C@H](C)O1 [Example 9s]	–
< 10	–	Clc1ccc(-c2ccc3c(N4CCOCC4)nc(-c4cccnc4)nc3n2)cc1 [Example 9t]	–
< 10	–	COc1cccc(-c2nc(N3CCOCC3)c3ccc(-c4ccc(Cl)cc4)nc3n2)c1 [Example 9u]	–
< 10	–	O=[N+]([O-])c1cccc(-c2nc(N3CCOCC3)c3ccc(-c4ccc(Cl)cc4)nc3n2)c1 [Example 9v]	–

IC50 [2, 4] [µM]	IC50 [2, 5] [µM]	SMILES	further results
< 10	–	O=Cc1cccc(-c2nc(N3CCOCC3)c3ccc(-c4ccc(Cl)cc4)nc3n2)c1 [Example 9w]	–
< 10	–	Clc1ccc(-c2ccc3c(N4CCOCC4)nc(-c4ccco4)nc3n2)cc1 [Example 9x]	–
< 10	–	Cc1cccc(-c2nc(N3CCOCC3)c3ccc(-c4ccc(Cl)cc4)nc3n2)c1 [Example 9y]	–
< 10	–	COCc1cccc(-c2nc(N3CCOCC3)c3ccc(-c4ccc(Cl)cc4)nc3n2)c1 [Example 9z]	–
–	–	C[C@H]1COCCN1c1nc(N2CCOCC2)nc2nc(-c3ccc(N)nc3)ccc12 [Example 28dl]	IC50 [3, 6]: 0.295 µM
–	–	COc1ccc(-c2ccc3c(N4CCOC[C@@H]4C)nc(N4CCCC(c5ccccc5)C4)nc3n2)cc1CO (stereo partly drawn) [Example 28j]	IC50 [3, 7]: < 11 µM
–	–	COc1ccc(-c2ccc3c(N4CCOC[C@@H]4C)nc(Nc4ccncn4)nc3n2)cc1CO [Example 28n]	IC50 [3, 7]: < 11 µM
–	–	COc1ccc(-c2ccc3c(N4CCOC[C@@H]4C)nc(Nc4cccnc4)nc3n2)cc1CO [Example 28o]	IC50 [3, 7]: < 11 µM
–	–	COc1ccc(-c2ccc3c(N4CCOC[C@@H]4C)nc(N4CCC(N5CCCCC5)CC4)nc3n2)cc1CO [Example 28z]	IC50 [3, 7]: < 11 µM
–	–	COc1ccc(-c2ccc3c(N4CCOC[C@@H]4C)nc(-c4cccc(CN)c4)nc3n2)cc1CO [Example 29e]	IC50 [3, 7]: < 11 µM
–	–	COC(=O)c1cccc(-c2nc(N3CCOC[C@@H]3C)c3ccc(-c4ccc(OC)c(CO)c4)nc3n2)c1 [Example 29h]	IC50 [3, 7]: < 11 µM
–	–	COc1ccc(-c2ccc3c(N4CCOC[C@@H]4C)nc(-c4cccc([N+](=O)[O-])c4)nc3n2)cc1CO [Example 29i]	IC50 [3, 7]: < 11 µM
–	–	COCc1cccc(-c2nc(N3CCOC[C@@H]3C)c3ccc(-c4ccc(OC)c(CO)c4)nc3n2)c1 [Example 29l]	IC50 [3, 7]: < 11 µM
–	–	COc1ccc(-c2ccc3c(N4CCOC[C@@H]4C)nc(-c4cccc(C(F)(F)F)c4)nc3n2)cc1CO [Example 29m]	IC50 [3, 7]: < 11 µM
–	–	COc1ccc(-c2ccc3c(N4CCOC[C@@H]4C)nc(-c4cccc(C)c4)nc3n2)cc1CO [Example 29n]	IC50 [3, 7]: < 11 µM
–	–	COc1cccc(-c2nc(N3CCOC[C@@H]3C)c3ccc(-c4ccc(OC)c(CO)c4)nc3n2)c1 [Example 29o]	IC50 [3, 7]: < 11 µM
–	–	C[C@H]1COCCN1c1nc(-c2ccncc2)nc2nc(-c3cccc(CO)c3)ccc12 [Example 29q]	IC50 [3, 7]: < 11 µM
–	–	COc1cncc(-c2nc(N3CCOC[C@@H]3C)c3ccc(-c4cccc(CO)c4)nc3n2)c1 [Example 29s]	IC50 [3, 7]: < 11 µM
–	–	C[C@H]1COCCN1c1nc(-c2cccnc2F)nc2nc(-c3cccc(CO)c3)ccc12 [Example 29u]	IC50 [3, 7]: < 11 µM
–	–	C[C@H]1COCCN1c1nc(-c2cnn(C)c2)nc2nc(-c3cccc(CO)c3)ccc12 [Example 29v]	IC50 [3, 7]: < 11 µM
–	–	Cc1nn(C)c(C)c1-c1nc(N2CCOC[C@@H]2C)c2ccc(-c3cccc(CO)c3)nc2n1 [Example 29w]	IC50 [3, 7]: < 11 µM
